In patent publication US9550811B2, “Peptide scaffold design” (BIONOR IMMUNO AS, priority 2010, dated 2017):

How the values were obtained:
Assay in all cases: REVEAL binding assay
Details in all cases: score as percentage of the signal generated by the positive control peptide
HLA-B8 = tested on: HLA-B8
HLA-A29 = tested on: HLA-A29
Description: (§5) The REVEAL™ binding assay determined the ability of each candidate peptide to bind to one or more MHC class I alleles and stabilizing the MHC-peptide complex. […] Detection is based on the presence or absence of the native conformation of the MHC-peptide complex. Each peptide is given a score relative to the positive control peptide, which is a known T cell epitope.

HLA-B15 = tested on: HLA-B15
Description: as §5

HLA-A3 = HLA-A3 (Homo sapiens, UniProt P04439)
Description: (§1) Binding properties to HLA for the ninemers listed in table 6 were tested for the following HLA-classes:
(§2) HLA-A1, HLA-A2, HLA-A3, HLA-A11, HLA-A24, HLA-A29, HLA-B7, HLA-B8, HLA-B14, HLA-B15, HLA-B27, HLA-B35, HLA-B40.
(§3) The peptides were synthesized as a Prospector PEPscreen®: Custom Peptide Library. […] Quality control by MALDI-TOF Mass Spectrometry was carried out on 100% of samples.
(§4) The REVEAL™ binding assay determined the ability of each candidate peptide to bind to one or more MHC class I alleles and stabilizing the MHC-peptide complex. By comparing the binding to that of high and intermediate affinity T cell epitopes, the most likely immunogenic peptides in a protein sequence can be identified. Detection is based on the presence or absence of the native conformation of the MHC-peptide complex. Each peptide is given a score relative to the positive control peptide, which is a known T cell epitope.

HLA-A2 = HLA-A2 (Homo sapiens, UniProt P04439, D140Y/D185E/D98H/E176V/E277Q/G131W/G231S/I119V/I121R/I166T/I218V/N151K/N90K/P208A/P217A/Q86G/Q94H/R138H/R169H)
Description: as §1, §2, §3, §4

HLA-A11 = HLA-A11 (Homo sapiens, UniProt P04439, A114D/F33Y/S129P)
Description: as §1, §2, §3, §4

HLA-B27 = HLA-B27 (Homo sapiens, UniProt P01889, D138H/D201E/E176V/E204Q/G107R/H137Y/K202T/N104T/N87E/Q56L/Q94K/R106L/R155S/R180L/S101D/S121N/S48T/Y140D/Y33H/Y91C)
Description: as §1, §2, §3, §4

HLA-B7 = HLA-B7 (Homo sapiens, UniProt P01889)
Sequence of HLA-B7 (P61769 21-119): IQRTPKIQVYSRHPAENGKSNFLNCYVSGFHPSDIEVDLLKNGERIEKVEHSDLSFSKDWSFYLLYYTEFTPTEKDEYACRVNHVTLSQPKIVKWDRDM
Sequence of HLA-B7 (P01889 25-299): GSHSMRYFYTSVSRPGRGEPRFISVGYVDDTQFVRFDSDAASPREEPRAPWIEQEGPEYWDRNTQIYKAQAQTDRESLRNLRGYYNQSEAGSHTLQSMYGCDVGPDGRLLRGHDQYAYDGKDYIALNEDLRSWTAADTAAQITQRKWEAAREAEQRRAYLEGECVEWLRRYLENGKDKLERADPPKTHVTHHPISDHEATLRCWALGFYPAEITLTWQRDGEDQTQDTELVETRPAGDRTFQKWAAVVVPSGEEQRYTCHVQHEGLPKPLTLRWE
Description: as §1, §2, §3, §4

HLA-B40 = tested on: HLA-B40
Description: as §1, §2
The peptides were synthesized as a Prospector PEPscreen®: Custom Peptide Library. Peptides 8-15 amino acids in length were synthesized in 0.5-2 mg quantities with high average purity. Quality control by MALDI-TOF Mass Spectrometry was carried out on 100% of samples.
as §4, with “epitope. The score of the test peptide is reported quantitatively as a percentage of the signal generated by the positive control peptide, and the peptide is indicated as having a putative pass or fail result. Assay performance is confirmed by including an intermediate control peptide that is known to bind with weaker affinity to the allele under investigation.” for “epitope.”

HLA-B14 = tested on: HLA-B14
Description: as §5

HLA-A1 = tested on: HLA-A1
HLA-A24 = tested on: HLA-A24
Description: as §5

HLA-B35 = tested on: HLA-B35

Sequence of HLA-A3 (P04439 25-299): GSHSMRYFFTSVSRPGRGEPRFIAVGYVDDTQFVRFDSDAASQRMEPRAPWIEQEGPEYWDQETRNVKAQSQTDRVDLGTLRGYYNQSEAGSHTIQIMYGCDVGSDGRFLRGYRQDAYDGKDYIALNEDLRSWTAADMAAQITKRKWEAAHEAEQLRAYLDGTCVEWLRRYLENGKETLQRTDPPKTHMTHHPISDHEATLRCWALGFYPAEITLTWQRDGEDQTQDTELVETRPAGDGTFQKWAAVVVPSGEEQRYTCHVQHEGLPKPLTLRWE
Sequence of HLA-A3 (P61769 21-119, further chain): as the sequence (P61769 21-119) above

Row | Sequence | REVEAL binding score, HLA-type B8 (HLA-B8) | REVEAL binding score, HLA-type A29 (HLA-A29) | REVEAL binding score, HLA-type B15 (HLA-B15) | REVEAL binding score, HLA-type A3 (HLA-A3) | REVEAL binding score, HLA-type A2 (HLA-A2) | REVEAL binding score, HLA-type A11 (HLA-A11) | REVEAL binding score, HLA-type B27 (HLA-B27) | REVEAL binding score, HLA-type B7 (HLA-B7) | REVEAL binding score, HLA-type B40 (HLA-B40) | REVEAL binding score, HLA-type B14 (HLA-B14) | REVEAL binding score, HLA-type A1 (HLA-A1) | REVEAL binding score, HLA-type A24 (HLA-A24) | REVEAL binding score, HLA-type B35 (HLA-B35)
1 | RALAHGVRV | 18.08% | 29.73% | 11.84% | 2.51% | 8.69% | 4.45% | 6.37% | 2.55% | 70.26% | 0.46% | 20.77% | 0.84% | 6.07%
2 | QIIGGNYLI | 10.61% | 13.60% | 29.59% | 6.30% | 73.54% | 4.06% | 0.91% | 52.04% | 83.60% | 0.40% | 21.63% | 12.60% | 8.99%
3 | MGYIPLVGA | 14.88% | 19.54% | 8.85% | 3.40% | 10.71% | 4.79% | 0.83% | 0.80% | 40.78% | 0.73% | 11.34% | 0.35% | 0.85%
4 | VGGVYLLPR | 11.57% | 14.20% | 13.22% | 3.41% | 8.73% | 4.16% | 0.79% | 1.15% | 55.61% | 0.44% | 17.88% | 0.34% | 4.02%
5 | IVGGVYLLP | 11.48% | 12.38% | 15.00% | 1.88% | 6.78% | 3.10% | 0.68% | 24.16% | 19.83% | 1.65% | 22.11% | 0.30% | 2.68%
6 | DLMGYIPLV | 22.65% | 25.64% | 7.67% | 4.66% | 103.34% | 5.01% | 1.05% | 4.84% | 39.33% | 0.23% | 16.67% | 1.14% | 2.49%
7 | LPAVGAPIG | 15.87% | 25.32% | 10.10% | 3.02% | 5.60% | 4.95% | 0.49% | 8.12% | 39.31% | 0.12% | 20.57% | 0.61% | 1.06%
8 | IRVIAHGLR | 13.34% | 23.19% | 8.99% | 3.58% | 4.83% | 2.50% | 9.37% | 3.50% | 26.45% | 0.10% | 15.82% | 0.50% | 0.66%
9 | NLGKVIDTL | 16.86% | 10.67% | 12.59% | 6.41% | 7.70% | 12.81% | 2.64% | 2.64% | 53.82% | 0.57% | 18.14% | 1.16% | 4.39%
10 | RNLGRVIET | 15.51% | 15.13% | 8.84% | 5.52% | 5.96% | 13.68% | 0.91% | 0.71% | 27.57% | 0.26% | 15.93% | 0.51% | 2.34%
11 | VTGNIPGST | 13.12% | 15.05% | 5.15% | 2.52% | 8.44% | 4.85% | 1.58% | 2.24% | 130.97% | 0.75% | 16.18% | 1.60% | 4.00%
12 | LGRVIETLT | 14.74% | 12.31% | 16.38% | 7.40% | 5.90% | 20.27% | 2.54% | 2.66% | 62.07% | 0.28% | 16.33% | 0.97% | 3.43%
13 | GGQIIGGNY | 10.52% | 14.38% | 90.62% | 2.23% | 7.06% | 2.40% | 0.24% | 1.09% | 15.03% | 0.25% | 24.04% | 0.39% | 2.22%
14 | GNIPGSTYS | 6.32% | 24.38% | 4.80% | 5.04% | 5.07% | 1.54% | 1.58% | 0.94% | 55.59% | 0.34% | 7.54% | 0.00% | 7.86%
